Measured values from US20130072430A1, “METHODS FOR TREATMENT OR PROPHYLAXIS OF KIDNEY OR LIVER DYSFUNCTION” (NPS PHARMACEUTICALS, INC., priority 2010, published 2013).

Tested on: Human patients with short bowel syndrome
Experiment: Example 1: liver diagnostic biomarkers (total bilirubin, ALT, AST, ALP) in short bowel syndrome patients, every four weeks for 24 weeks
Assay type: in vivo
Design: AST (SGOT) Change from Baseline, Median / ALT (SGPT), Median / TOTAL BILIRUBIN, Median / TOTAL BILIRUBIN Change from Baseline, Median / ALT (SGPT) Change from Baseline, Median / AST (SGOT), Median: unit not given here
Conditions: 0.05 mg/kg/day
Procedure: Human patients with short bowel syndrome were divided into three groups: a control group (16 total individuals) to receive placebo, an experimental group (35 total individuals) to receive teduglutide at 0.05 mg/kg/day throughout the study, and an experimental group (32 total individuals) to receive teduglutide at 0.1 mg/kg/day throughout the study. Patients were treated by subcutaneous injection of placebo or the appropriate dose of teduglutide. As individuals with short bowel syndrome are likely to experience associated liver and kidney disease, known biomarkers of liver and kidney function were monitored every four weeks, for 24 weeks. The liver biomarkers tested included total bilirubin, ALT and AST and ALP. The kidney biomarkers tested included urea nitrogen, creatinine and GFR. Before administration of placebo or teduglutide, diagnostic biomarker levels were tested to establish a baseline for each individual.
To visualize the effect of GLP-2 on the levels of the diagnostic biomarkers, the average change from baseline was calculated for the placebo and teduglutide treated groups for each visit after a baseline was established. The average change from baseline of each group is depicted in FIGS. […]. The numerical figures for each diaanostic biomarker at each time point are depicted in Table 1.
The efficacy of teduglutide in treating liver dysfunction was further tested by sorting the data into two groups: individuals with abnormal baseline values of liver diagnostic biomarkers; and individuals with normal baseline values of liver diagnostic biomarkers. The mean diagnostic biomarker change from baseline for these two groups is shown for ALT (FIGS. 5 and 6) and AST (FIGS. 7 and 8). […] These changes were significant when compared to baseline levels for the group, and when compared to placebo (see FIGS. 5 and 7).
The raw data for this sorting is reproduced in Table 2 below.

CC[C@H](C)[C@H](NC(=O)[C@H](Cc1ccccc1)NC(=O)[C@H](CC(=O)O)NC(=O)[C@H](CCCNC(=N)N)NC(=O)[C@H](C)NC(=O)[C@H](C)NC(=O)[C@H](CC(C)C)NC(=O)[C@H](CC(N)=O)NC(=O)[C@H](CC(=O)O)NC(=O)[C@H](CC(C)C)NC(=O)[C@@H](NC(=O)[C@@H](NC(=O)[C@H](CC(N)=O)NC(=O)[C@H](CCSC)NC(=O)[C@H](CCC(=O)O)NC(=O)[C@H](CC(=O)O)NC(=O)[C@H](CO)NC(=O)[C@H](Cc1ccccc1)NC(=O)[C@H](CO)NC(=O)CNC(=O)[C@H](CC(=O)O)NC(=O)CNC(=O)[C@@H](N)Cc1c[nH]cn1)[C@@H](C)O)[C@@H](C)CC)C(=O)N[C@@H](CC(N)=O)C(=O)N[C@@H](Cc1c[nH]c2ccccc12)C(=O)N[C@@H](CC(C)C)C(=O)N[C@H](C(=O)N[C@@H](CCC(N)=O)C(=O)N[C@H](C(=O)N[C@@H](CCCCN)C(=O)N[C@H](C(=O)N[C@H](C(=O)N[C@@H](CC(=O)O)C(=O)O)[C@@H](C)O)[C@@H](C)CC)[C@@H](C)O)[C@@H](C)CC [teduglutide]
ALKALINE PHOSPHATASE Change from Baseline, Mean (SD) (DW4): −24.8 (45.66) | ALKALINE PHOSPHATASE Change from Baseline, Median (DW4): −16.0 | ALKALINE PHOSPHATASE, Mean (SD) (DW4): 159.5 (90.91) | ALKALINE PHOSPHATASE, Median (DW4): 139.0 | ALT (SGPT) Change from Baseline, Mean (SD) (DW4): −14.9 (26.39) | ALT (SGPT) Change from Baseline, Median (DW4): −5.0 | ALT (SGPT), Mean (SD) (DW4): 30.1 (14.08) | ALT (SGPT), Median (DW4): 27.0 | AST (SGOT) Change from Baseline, Mean (SD) (DW4): −5.5 (24.09) | AST (SGOT) Change from Baseline, Median (DW4): −4.0 | AST (SGOT), Mean (SD) (DW4): 29.1 (19.23) | AST (SGOT), Median (DW4): 27.0 | TOTAL BILIRUBIN Change from Baseline, Mean (SD) (DW4): −0.8 (4.31) | TOTAL BILIRUBIN Change from Baseline, Median (DW4): 0.0 | TOTAL BILIRUBIN, Mean (SD) (DW4): 10.4 (9.48) | TOTAL BILIRUBIN, Median (DW4): 7.0 | ALKALINE PHOSPHATASE Change from Baseline, Mean (SD) (DW8): −24.0 (64.47) | ALKALINE PHOSPHATASE Change from Baseline, Median (DW8): −20.0 | ALKALINE PHOSPHATASE, Mean (SD) (DW8): 152.2 (84.05) | ALKALINE PHOSPHATASE, Median (DW8): 134.0 | ALT (SGPT) Change from Baseline, Mean (SD) (DW8): −9.8 (30.38) | ALT (SGPT) Change from Baseline, Median (DW8): −4.0 | ALT (SGPT), Mean (SD) (DW8): 37.3 (23.71) | ALT (SGPT), Median (DW8): 31.5 | AST (SGOT) Change from Baseline, Mean (SD) (DW8): −3.2 (19.88) | AST (SGOT) Change from Baseline, Median (DW8): −3.0 | AST (SGOT), Mean (SD) (DW8): 33.5 (18.56) | AST (SGOT), Median (DW8): 28.0 | TOTAL BILIRUBIN Change from Baseline, Mean (SD) (DW8): −0.4 (4.78) | TOTAL BILIRUBIN Change from Baseline, Median (DW8): −1.0 | TOTAL BILIRUBIN, Mean (SD) (DW8): 10.8 (8.86) | TOTAL BILIRUBIN, Median (DW8): 8.0 | ALKALINE PHOSPHATASE Change from Baseline, Mean (SD) (DW12): −39.4 (48.95) | ALKALINE PHOSPHATASE Change from Baseline, Median (DW12): −24.0 | ALKALINE PHOSPHATASE, Mean (SD) (DW12): 143.5 (73.92) | ALKALINE PHOSPHATASE, Median (DW12): 130.5 | ALT (SGPT) Change from Baseline, Mean (SD) (DW12): −12.7 (29.55) | ALT (SGPT) Change from Baseline, Median (DW12): −10.0 | ALT (SGPT), Mean (SD) (DW12): 34.6 (24.30) | ALT (SGPT), Median (DW12): 26.0 | AST (SGOT) Change from Baseline, Mean (SD) (DW12): −5.9 (19.28) | AST (SGOT) Change from Baseline, Median (DW12): −8.0 | AST (SGOT), Mean (SD) (DW12): 29.2 (15.48) | AST (SGOT), Median (DW12): 26.5 | TOTAL BILIRUBIN Change from Baseline, Mean (SD) (DW12): −1.8 (5.75) | TOTAL BILIRUBIN Change from Baseline, Median (DW12): −1.0 | TOTAL BILIRUBIN, Mean (SD) (DW12): 9.4 (6.65) | TOTAL BILIRUBIN, Median (DW12): 7.0 | ALKALINE PHOSPHATASE Change from Baseline, Mean (SD) (DW16): −12.3 (69.90) | ALKALINE PHOSPHATASE Change from Baseline, Median (DW16): −20.5 | ALKALINE PHOSPHATASE, Mean (SD) (DW16): 168.2 (128.08) | ALKALINE PHOSPHATASE, Median (DW16): 134.0 | ALT (SGPT) Change from Baseline, Mean (SD) (DW16): −3.2 (24.76) | ALT (SGPT) Change from Baseline, Median (DW16): −2.5 | ALT (SGPT), Mean (SD) (DW16): 39.5 (39.44) | ALT (SGPT), Median (DW16): 28.0 | AST (SGOT) Change from Baseline, Mean (SD) (DW16): −4.3 (11.75) | AST (SGOT) Change from Baseline, Median (DW16): −1.5 | AST (SGOT), Mean (SD) (DW16): 29.3 (12.05) | AST (SGOT), Median (DW16): 25.0 | TOTAL BILIRUBIN Change from Baseline, Mean (SD) (DW16): −1.3 (9.00) | TOTAL BILIRUBIN Change from Baseline, Median (DW16): −1.0 | TOTAL BILIRUBIN, Mean (SD) (DW16): 10.0 (8.90) | TOTAL BILIRUBIN, Median (DW16): 7.0 | ALKALINE PHOSPHATASE Change from Baseline, Mean (SD) (DW20): −36.9 (49.89) | ALKALINE PHOSPHATASE Change from Baseline, Median (DW20): −25.0 | ALKALINE PHOSPHATASE, Mean (SD) (DW20): 144.2 (76.09) | ALKALINE PHOSPHATASE, Median (DW20): 136.5 | ALT (SGPT) Change from Baseline, Mean (SD) (DW20): −16.0 (28.73) | ALT (SGPT) Change from Baseline, Median (DW20): −5.0 | ALT (SGPT), Mean (SD) (DW20): 29.7 (13.35) | ALT (SGPT), Median (DW20): 26.0 | AST (SGOT) Change from Baseline, Mean (SD) (DW20): −8.0 (14.96) | AST (SGOT) Change from Baseline, Median (DW20): −4.0 | AST (SGOT), Mean (SD) (DW20): 26.1 (7.02) | AST (SGOT), Median (DW20): 25.0 | TOTAL BILIRUBIN Change from Baseline, Mean (SD) (DW20): −0.8 (5.69) | TOTAL BILIRUBIN Change from Baseline, Median (DW20): 0.0 | TOTAL BILIRUBIN, Mean (SD) (DW20): 9.7 (6.78) | TOTAL BILIRUBIN, Median (DW20): 9.0 | ALKALINE PHOSPHATASE Change from Baseline, Mean (SD) (DW24): −11.6 (166.86) | ALKALINE PHOSPHATASE Change from Baseline, Median (DW24): −29.0 | ALKALINE PHOSPHATASE, Mean (SD) (DW24): 169.6 (204.22) | ALKALINE PHOSPHATASE, Median (DW24): 131.0 | ALT (SGPT) Change from Baseline, Mean (SD) (DW24): −13.5 (24.40)
